Here are results for two compounds from PMC9675574 (JCI Insight, 2022).

Each structure is given as a SMILES string. Read-outs that look alike come from different tables or passages of the source.

Broadly, the Km is the substrate concentration at which the rate is half of its maximum. In general, Ki refers to a measure of affinity in units of concentration, obtained from inhibition or displacement.

For series [1] the following is noted: human volunteers, cited from earlier work.
In a further series the target is T1, bovine trypsin (Bos taurus, UniProt P00760).
T1 construct: purchased Worthington Biochemical Corporation LS003707
T1 sequence (P00760 24-246): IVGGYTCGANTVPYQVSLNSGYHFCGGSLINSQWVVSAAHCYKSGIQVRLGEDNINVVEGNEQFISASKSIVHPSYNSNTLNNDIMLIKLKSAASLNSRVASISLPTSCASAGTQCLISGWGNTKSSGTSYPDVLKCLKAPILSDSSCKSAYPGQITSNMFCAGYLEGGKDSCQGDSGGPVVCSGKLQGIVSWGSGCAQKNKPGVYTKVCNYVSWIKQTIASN
Nature of the series: Competitive inhibition kinetics of trypsin, GPR-pNA substrate. Format: biochemical. The conditions noted are these: 24°C. On the procedure:
Bovine trypsin (catalog number LS003707) was purchased from Worthington Biochemical Corporation and was active-site titrated with p-nitrophenyl p’-guanidino-benzoate (catalog number N-8010, MilliporeSigma) ([59]). Ecotin was produced and purified as reported previously ([60]). The concentration of ecotin was determined by titration against active-site titrated bovine trypsin. Recombinant human pro-enterokinase (catalog number 1585-SE-010) was purchased from R&D Systems and was activated with human cationic trypsin. The trypsin substrate GPR-pNA (catalog number 4000768.0100) was purchased from Bachem Americas. […] Michaelis-Menten kinetic parameters of trypsin isoforms were determined with the chromogenic substrate GPR-pNA at 24°C. […] Km and kcat values were calculated from hyperbolic fits to plots of reaction velocity versus substrate concentration. […] To determine the Ki, the Km values were plotted as a function of the inhibitor concentration, and the Ki was calculated by dividing the y axis intercept with the slope of the linear fit. This value corresponds to the negative of the x axis intercept. […] Experiments were performed 3 times and each experiment was analyzed separately. […] Kinetic analysis was performed with the Prism 8 program (GraphPad).

Series [2] has as its target human and mouse trypsin isoforms. Nature of the series: Ki ranges over the panel of trypsin isoforms. Format: biochemical. As for the experimental part:
Michaelis-Menten kinetic parameters of trypsin isoforms were determined with the chromogenic substrate GPR-pNA at 24°C. […] Km and kcat values were calculated from hyperbolic fits to plots of reaction velocity versus substrate concentration. […] To determine the Ki, the Km values were plotted as a function of the inhibitor concentration, and the Ki was calculated by dividing the y axis intercept with the slope of the linear fit. This value corresponds to the negative of the x axis intercept. […] Experiments were performed 3 times and each experiment was analyzed separately. […] Kinetic analysis was performed with the Prism 8 program (GraphPad).

Series [3] deals with mouse trypsin isoform T9 (anionic trypsin) (Mus musculus, UniProt Q9QUK9). Nature of the series: biochemical. The format is biochemical. The conditions noted are these: for Km / kcat: GPR-pNA, 24°C; for Ki: mean ± SD, n = 3. As for the experimental part:
(§1) Recombinant human and mouse trypsinogens were expressed in Escherichia coli BL21(DE3) (Invitrogen), refolded in vitro, and purified by ecotin affinity chromatography (Pharmacia FPLC), according to published protocols ([60], [63], [64]). Sulfated human trypsinogens were purified from archived samples of human pancreatic juice, as described previously, with minor modifications ([65], [66]). Briefly, 50 mg freeze-dried pancreatic juice was dissolved in 2 mL 10 mM HCl, clarified by centrifugation (21,000g, 5 minutes, 4°C), and loaded onto a MonoQ 5/50 GL column equilibrated with 20 mM Tris-HCl (pH 8.0). Proteins were eluted with a 0–0.5 M NaCl gradient at 1 mL/min flow rate for 30 minutes. The fractions containing the cationic and anionic trypsinogens were further purified with ecotin affinity chromatography. The concentration of trypsinogen preparations was estimated from their UV absorbance at 280 nm using the extinction coefficients reported previously for mouse trypsinogens ([64]) and 37,525, 38,890, and 41,535/M/cm for human cationic trypsinogen (PRSS1), anionic trypsinogen (PRSS2), and mesotrypsinogen (PRSS3), respectively. To activate trypsinogen to trypsin, approximately 1 μM solution was incubated at 37°C with 28.2 ng/mL human enterokinase (final concentration) in 0.1 M Tris-HCl (pH 8.0), 10 mM CaCl2, and 0.05% Tween 20 for 1 hour. The activation reaction was followed by measuring trypsin activity: 2 μL trypsin was diluted in 48 μL assay buffer [0.1 M Tris-HCl (pH 8.0), 1 mM CaCl2, and 0.05% Tween 20], and 150 μL of 200 μM GPR-pNA trypsin substrate (in assay buffer) was added. Substrate cleavage resulting in the release of the yellow p-nitroaniline was monitored for 1 minute in a Spectramax Plus 384 microplate reader at 405 nm.
(§2) Michaelis-Menten kinetic parameters of trypsin isoforms were determined with the chromogenic substrate GPR-pNA at 24°C. The trypsin concentration was 1 nM and the substrate concentration was varied typically between 1.56 and 200 μM in a final volume of 200 μL assay buffer. The substrate concentration range was 3.1–400 μM for mouse trypsin isoform T7 and 0.4–50 μM for mouse trypsin isoform T20. Km and kcat values were calculated from hyperbolic fits to plots of reaction velocity versus substrate concentration.
(§3) Michaelis-Menten kinetic parameters were then measured after adding 100 μL trypsin substrate, as described above. […] To determine the Ki, the Km values were plotted as a function of the inhibitor concentration, and the Ki was calculated by dividing the y axis intercept with the slope of the linear fit. This value corresponds to the negative of the x axis intercept. Alternatively, the substrate saturation curves obtained in the absence and presence of the increasing inhibitor concentrations were globally fitted to the competitive inhibition equation y = vmax × (x/[KmObs+ x]), where y is the reaction velocity, vmax is the maximal velocity, x is the substrate concentration, and KmObs = Km × (1 + [I]/Ki), where [I] is the inhibitor concentration. Experiments were performed 3 times and each experiment was analyzed separately. […] Kinetic analysis was performed with the Prism 8 program (GraphPad).

Series [4] concerns the target mouse trypsin isoform T8 (anionic trypsin) (Mus musculus, UniProt Q9R0T7). Nature of the series: biochemical. The conditions noted are these: for Km / kcat: GPR-pNA, 24°C. Format: biochemical. On the procedure:
as §1, §2, §3

Setting [5] is: range over trypsin isoforms tested, read-out: Ki range, individual fit analysis.

Chain of mouse trypsin isoform T8 (anionic trypsin) (Q9R0T7 24-246): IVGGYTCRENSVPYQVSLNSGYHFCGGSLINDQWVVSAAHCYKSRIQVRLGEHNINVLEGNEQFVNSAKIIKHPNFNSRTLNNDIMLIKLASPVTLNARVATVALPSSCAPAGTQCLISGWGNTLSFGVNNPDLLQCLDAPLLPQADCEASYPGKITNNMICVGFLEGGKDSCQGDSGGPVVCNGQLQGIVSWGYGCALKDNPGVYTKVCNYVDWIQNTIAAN
Chain of mouse trypsin isoform T9 (anionic trypsin) (Q9QUK9 24-246): as the sequence (Q9R0T7 24-246) above, with V12I, S44T, N218D counted along it

For `[H]/N=C(/N)c1ccc(NCc2nc3cc(C(=O)N(CCC(=O)O)c4ccccn4)ccc3n2C)cc1` [dabigatran], the “steady-state plasma levels of dabigatran” value in series [1] (100 mg dabigatran etexilate 3 times daily) was “around 50 ng/mL”; in series [1] (200 mg dabigatran etexilate 3 times daily), approximately 100 ng/mL. The Km was 49.5 ± 3.3 µM on bovine trypsin (50 nM dabigatran); 71.6 ± 3.5 µM at bovine trypsin (100 nM dabigatran); 91.9 ± 4.9 µM at bovine trypsin (150 nM dabigatran); 126 ± 7 µM on bovine trypsin (200 nM dabigatran); 19.8 ± 2.7 µM in series [3] (50 nM dabigatran); 28.3 ± 2.8 µM in series [3] (100 nM dabigatran). Also, the Michaelis-Menten constant (Km) stood at 46.1 ± 2.4 µM in series [3] (150 nM dabigatran); 56.7 ± 7.3 µM in series [3] (200 nM dabigatran); 20.6 ± 1.5 µM in series [4] (50 nM dabigatran); 34.2 ± 4.1 µM in series [4] (100 nM dabigatran); 46.3 ± 3 µM in series [4] (150 nM dabigatran); 60.8 ± 4 µM in series [4] (200 nM dabigatran). For the same compound, the kcat at bovine trypsin (50 nM dabigatran) was 127.7 ± 0.8 per second; on bovine trypsin (100 nM dabigatran), 126.6 ± 3.5 per second; at bovine trypsin (150 nM dabigatran), 123.8 ± 2.9 per second; on bovine trypsin (200 nM dabigatran), 130.1 ± 1.4 per second; in series [3] (50 nM dabigatran), 75.8 ± 2 per second; in series [3] (100 nM dabigatran), 72.5 ± 2.6 per second. The kcat stood at 78.4 ± 0.1 per second in series [3] (150 nM dabigatran); 77.6 ± 2.5 per second in series [3] (200 nM dabigatran); 90.4 ± 1 per second in series [4] (50 nM dabigatran); 92.3 ± 1.6 per second in series [4] (100 nM dabigatran); 88.9 ± 1.3 per second in series [4] (150 nM dabigatran); 85.1 ± 7.2 per second in series [4] (200 nM dabigatran). In addition, the inhibitory constant (Ki) in series [2] (all human and mouse trypsin isoforms, read-out: Ki range) is 10 to 79 nM; in series [2] (range over trypsin isoforms tested, read-out: Ki range, global fit analysis), 10.3 to 78.9 nM; in series [2] (setting [5]), 10 to 65 nM; in series [3] (Ki dabigatran, Global fit), 35.8 ± 3.5 nM; in series [3] (Ki dabigatran, Individual fit), 28.4 ± 7.1 nM; in series [4], 31.6 ± 2.6 nM.

In the case of `N=C(N)c1ccccc1` [benzamidine], the kcat on bovine trypsin (25 μM benzamidine) is given as 109 ± 9.5 per second; on bovine trypsin (50 μM benzamidine), 115.8 ± .9 per second; in series [3] (12.5 μM benzamidine), 110 ± 3.4 per second; in series [3] (25 μM benzamidine), 111.4 ± 2.8 per second; in series [3] (37.5 μM benzamidine) it was 114.8 ± 2.8 per second; in series [3] (50 μM benzamidine) it was 112.3 ± 4.5 per second. The kcat in series [4] (12.5 μM benzamidine) amounted to 103.9 ± 7.9 per second; in series [4] (25 μM benzamidine) it was 105.6 ± 4.9 per second; in series [4] (37.5 μM benzamidine), 100.2 ± 0.8 per second; in series [4] (50 μM benzamidine), 105.5 ± 7 per second. The Ki in series [2] (setting [5]) was 3300 to 20600 nM; in series [3] it was 6800 ± 1000 nM; in series [4] (mean ± SD, n = 3), 6700 ± 1300 nM.
